The target in assay [1] is human orexin-2 receptor (hOX2R) (Homo sapiens (Human), UniProt O43614). Nature of the assay: FLIPR Ca2+ flux assay, orexin-2 receptor. It counts as cell-based. Particulars: CHO cells expressing the receptor; agonist 70 pM Ala-6,12 orexin-A. Here is the method:
The utility of the compounds in accordance with the present invention as orexin receptor OX1R and/or OX2R antagonists may be readily determined without undue experimentation by methodology well known in the art, including the “FLIPR Ca^2+ Flux Assay” (Okumura et al., Biochem. Biophys. Res. Comm. 280:976-981, 2001). In a typical experiment the OX1 and OX2 receptor antagonistic activity of the compounds of the present invention was determined in accordance with the following experimental method. For intracellular calcium measurements, Chinese hamster ovary (CHO) cells expressing the rat orexin-1 receptor or the human orexin-2 receptor, are grown in Iscove's modified DMEM containing 2 mM L-glutamine, […], 1% hypoxanthine-thymidine supplement, 100 U/ml penicillin, 100 μg/ml streptomycin and 10% heat-inactivated fetal calf serum (FCS). The cells are seeded at 20,000 cells/well into Becton-Dickinson black 384-well clear bottom sterile plates coated with poly-D-lysine. All reagents were from GIBCO-Invitrogen Corp. The seeded plates are incubated overnight at 37° C. and 5% CO2. Ala-6,12 human orexin-A as the agonist is prepared as a 1 mM stock solution in 1% bovine serum albumin (BSA) and diluted in assay buffer (HBSS containing 20 mM HEPES, 0.1% BSA and 2.5 mM probenecid, pH7.4) for use in the assay at a final concentration of 70 pM. Test compounds are prepared as 10 mM stock solution in DMSO, then diluted in 384-well plates, first in DMSO, then assay buffer. On the day of the assay, cells are washed 3 times with 100 μl assay buffer and then incubated for 60 min (37° C., 5% CO2) in 60 μl assay buffer containing 1 μM Fluo-4AM ester, 0.02% pluronic acid, and 1% BSA. The dye loading solution is then aspirated and cells are washed 3 times with 100 μl assay buffer. 30 μl of that same buffer is left in each well. Within the Fluorescent Imaging Plate Reader (FLIPR, Molecular Devices), test compounds are added to the plate in a volume of 25 μl, incubated for 5 min and finally 25 μl of agonist is added. Fluorescence is measured for each well at 1 second intervals for 5 minutes and the height of each fluorescence peak is compared to the height of the fluorescence peak induced by 70 pM Ala-6,12 orexin-A with buffer in place of antagonist. For each antagonist, IC50 value (the concentration of compound needed to inhibit 50% of the agonist response) is determined. Alternatively, compound potency can be assessed by a radioligand binding assay (described in Bergman et. al. Bioorg. Med. Chem. Lett. 2008, 18, 1425-1430) in which the inhibition constant (Ki) is determined in membranes prepared from CHO cells expressing either the OX1 or OX2 receptor. The intrinsic orexin receptor antagonist activity of a compound which may be used in the present invention may be determined by these assays.
A general note: Calcium assays in cells follow changes in intracellular calcium, usually with a dye or a luminescent sensor.

A further assay deals with hOX1R (Homo sapiens, UniProt O43613). Kind of assay: FLIPR Ca2+ flux assay, orexin-1 receptor. The assay is classed as cell-based. Particulars: CHO cells expressing the receptor; agonist 70 pM Ala-6,12 orexin-A.

The results in this text go back to US9987255B2, “5,5-bicyclic oxazole orexin receptor antagonists” (Merck Sharp & Dohme Corp., priority 2014, dated 2018).

For orientation: IC50 means the concentration that inhibits the measured activity by half.

human orexin-2 receptor (hOX2R), sequence (O43614 whole entry): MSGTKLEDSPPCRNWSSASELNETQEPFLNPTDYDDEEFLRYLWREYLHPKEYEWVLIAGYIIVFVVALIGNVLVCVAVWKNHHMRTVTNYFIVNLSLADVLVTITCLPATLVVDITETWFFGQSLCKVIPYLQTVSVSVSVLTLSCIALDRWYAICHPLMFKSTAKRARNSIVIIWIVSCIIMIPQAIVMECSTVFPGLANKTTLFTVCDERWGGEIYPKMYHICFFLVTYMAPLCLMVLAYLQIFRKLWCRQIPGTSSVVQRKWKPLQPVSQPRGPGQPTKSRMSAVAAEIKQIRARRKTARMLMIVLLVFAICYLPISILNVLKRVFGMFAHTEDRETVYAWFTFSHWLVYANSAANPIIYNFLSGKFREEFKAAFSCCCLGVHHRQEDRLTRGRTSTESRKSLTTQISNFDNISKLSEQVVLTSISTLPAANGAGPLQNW

In the case of `Cc1oc(N2CC3CN(C(=O)c4ccccc4-n4nccn4)CC3C2)nc1C(C)(C)O` (stereo not shown) [Example 1, (2-(2H-1,2,3-triazol-2-yl)phenyl)(5-(4-(2-hydroxypropan-2-yl)-5-methyloxazol-2-yl)hexahydropyrrolo[3,4-c]pyrrol-2(1H)-yl)methanone], the figures for the IC50 (in assay [1]; at hOX1R) were 27 nM and 6.88 µM, respectively.
In the case of `CCOc1ncccc1C(=O)N1CC2CN(c3nc(C(C)(C)O)c(C)o3)CC2C1` (stereo not shown) [Example 2, 2-(2-{5-[(2-Ethoxypyridin-3-yl)carbonyl]hexahydropyrrolo[3,4-c]pyrrol-2(1H)-yl}-5-methyl-1,3-oxazol-4-yl)propan-2-ol], the half-inhibitory concentration (IC50) was 545 nM in assay [1] and > 10 µM at hOX1R.
In the same order, the values of `Cc1oc(N2CC3CN(C(=O)c4cccnc4OCC(F)(F)F)CC3C2)nc1C(C)(C)O` (stereo not shown) [Example 3, 2-{5-methyl-2-[5-{[2-(2,2,2-trifluoroethoxy)pyridin-3-yl]carbonyl}hexahydropyrrolo [3,4-c]pyrrol-2(1H)-yl]-1,3-oxazol-4-yl}propan-2-ol] are 106 nM and > 10 µM.
As for `Cc1oc(N2CC3CN(C(=O)c4ccccc4OC(F)(F)F)CC3C2)nc1C(C)(C)O` (stereo not shown) [Example 4, 2-{5-methyl-2-[5-{[2-(trifluoromethoxy)phenyl]carbonyl}hexahydropyrrolo[3,4-c]pyrrol-2(1H)-yl]-1,3-oxazol-4-yl} propan-2-ol], the figures for the IC50 (in assay [1]; on hOX1R) were 604 nM and > 10 µM, respectively.
For the molecule `Cc1oc(N2CC3CN(C(=O)c4ncccc4-c4ccccc4)CC3C2)nc1C(C)(C)O` (stereo not shown) [Example 5, 2-(5-methyl-2-{5-[(3-phenylpyridin-2-yl)carbonyl]hexahydropyrrolo[3,4-c]pyrrol-2(1H)-yl}-1,3-oxazol-4-yl) propan-2-ol], the IC50 was 583 nM in assay [1] and > 10 µM at hOX1R.
Taken in the same sequence, the figures for `CCCc1ccccc1C(=O)N1CC2CN(c3nc(C(C)(C)O)c(C)o3)CC2C1` (stereo not shown) [Example 6, 2-(5-methyl-2-{5-[(2-propylphenyl)carbonyl]hexahydropyrrolo[3,4-c]pyrrol-2(1H)-yl}-1,3-oxazol-4-yl)propan-2-ol] were 32 nM and > 10 µM.
For the molecule `Cc1oc(N2CC3CN(C(=O)c4ccccc4OCC(F)(F)F)CC3C2)nc1C(C)(C)O` (stereo not shown) [Example 7, 2-{5-methyl-2-[5-{[2-(2,2,2-trifluoroethoxy)phenyl]carbonyl}hexahydropyrrolo[3,4-c]pyrrol-2(1H)-yl]-1,3-oxazol-4-yl} propan-2-ol], the IC50 in assay [1] was 165 nM; at hOX1R, > 10 µM.
`Cc1oc(N2CC3CN(C(=O)c4cccnc4OC(C)C)CC3C2)nc1C(C)(C)O` (stereo not shown) [Example 8, 2-{5-methyl-2-[5-{[2-(1-methylethoxy)pyriddin-3-yl]carbonyl}hexahydropyrrolo [3,4-c]pyrrol-2(1H)-yl]-1,3-oxazol-4-yl}propan-2-ol]: the IC50 in assay [1] was 126 nM; on hOX1R, > 10 µM.
Consider `Cc1oc(N2CC3CN(C(=O)c4cccnc4OCC(F)F)CC3C2)nc1C(C)(C)O` (stereo not shown) [Example 9, 2-{2-[5-{[2-(2,2-difluoroethoxy)pyridin-3-yl]carbonyl}hexahydropyrrolo [3,4-c]pyrrol-2(1H)-yl]-5-methyl-1,3-oxazol-4-yl} propan-2-ol], for which the IC50 was 312 nM in assay [1] and > 10 µM on hOX1R.
With `Cc1oc(N2CC3CN(C(=O)c4cccnc4CC(F)(F)F)CC3C2)nc1C(C)(C)O` (stereo not shown) [Example 10], the IC50 in assay [1] is 46 nM; on hOX1R, > 10 µM.
With `Cc1oc(N2CC3CN(C(=O)c4ccccc4C4CC4)CC3C2)nc1C(C)(C)O` (stereo not shown) [Example 11, 2-(2-{5-[(2-cyclopropylphenyl)carbonyl]hexahydropyrrolo[3,4-c]pyrrol-2(1H)-yl}-5-methyl-1,3-oxazol-4-yl)propan-2-ol], the results for the IC50 (in assay [1]; on hOX1R) were 87 nM and > 10 µM, respectively.
As for `Cc1oc(N2CC3CN(C(=O)c4ccccc4C4CCC4)CC3C2)nc1C(C)(C)O` (stereo not shown) [Example 12, 2-(2-{5-[(2-cyclobutylphenyl)carbonyl]hexahydropyrrolo[3,4-c]pyrrol-2(1H)-yl}-5-methyl-1,3-oxazol-4-yl)propan-2-ol], the IC50 came out at 23 nM in assay [1] and 5.3 µM on hOX1R.
Regarding `Cc1oc(N2CC3CN(C(=O)c4ccccc4N4CCCC4)CC3C2)nc1C(C)(C)O` (stereo not shown) [Example 13, 2-(5-methyl-2-{5-[(2-pyrrolidin-1-ylphenyl)carbonyl]hexahydropyrrolo [3,4-c]pyrrol-2(1H)-yl}-1,3-oxazol-4-yl)propan-2-ol], the figures for the IC50 (in assay [1]; at hOX1R) were 49 nM and > 10 µM, respectively.
On to `Cc1oc(N2CC3CN(C(=O)c4ccccc4-n4cccn4)CC3C2)nc1C(C)(C)O` (stereo not shown) [Example 14, 2-{5-methyl-2-[5-{(2-(1H-pyrazol-1-yl)phenyl]carbonyl}hexahydropyrrolo [3,4-c]pyrrol-2(1H)-yl]-1,3-oxazol-4-yl}propan-2-ol], for which the half-maximal inhibitory concentration (IC50) in assay [1] was 72 nM; on hOX1R, > 10 µM.
`Cc1oc(N2CC3CN(C(=O)c4ccccc4-n4ncnn4)CC3C2)nc1C(C)(C)O` (stereo not shown) [Example 15, 2-{5-methyl-2-[5-{[2-(2H-tetrazol-2-yl)phenyl]carbonyl}hexahydropyrrolo [3,4-c]pyrrol-2(1H)-yl]-1,3-oxazol-4-yl}propan-2-ol]: the values for the IC50 (in assay [1]; on hOX1R) were 65 nM and > 10 µM, respectively.
Taken in the same sequence, the figures for `Cc1oc(N2CC3CN(C(=O)c4ccc(F)cc4-n4nccn4)CC3C2)nc1C(C)(C)O` (stereo not shown) [Example 16, 2-{2-[5-{[4-fluoro-2-(2H-1,2,3-triazol-2-yl)phenyl]carbonyl}hexahydropyrrolo [3,4-c]pyrrol-2(1H)-yl]-5-methyl-1,3-oxazol-4-yl}propan-2-ol] were 32 nM and 3.07 µM.
`Cc1oc(N2CC3CN(C(=O)c4ncccc4-n4nccn4)CC3C2)nc1C(C)(C)O` (stereo not shown) [Example 17, 2-{5-methyl-2-[5-{(3-(2H-1,2,3-triazol-2-yl)pyridin-2-yl]carbonyl}hexahydropyrrolo[3,4-c]pyrrol-2(1H)-yl]-1,3-oxazol-4-yl}propan-2-ol]: the IC50 in assay [1] is 84 nM; on hOX1R, > 10 µM.
For the molecule `Cc1oc(N2CC3CN(C(=O)c4cccnc4-n4cccn4)CC3C2)nc1C(C)(C)O` (stereo not shown) [Example 18, 2-{5-methyl-2-[5-{[2-(1H-pyrazol-1-yl)pyridin-3-yl]carbonyl}hexahydropyrrolo [3,4-c]pyrrol-2(1H)-yl]-1,3-oxazol-4-yl}propan-2-ol], the IC50 is 35 nM in assay [1] and 9.85 µM at hOX1R.
For `Cc1oc(N2CC3CN(C(=O)c4cccnc4-c4ccccc4)CC3C2)nc1C(C)(C)O` (stereo not shown) [Example 19, 2-(5-methyl-2-{5-[(2-phenylpyridin-3-yl)carbonyl]hexahydropyrrolo [3,4-c]pyrrol-2(1H)-yl}-1,3-oxazol-4-yl)propan-2-ol], the half-maximal inhibitory concentration (IC50) in assay [1] was 60 nM; at hOX1R it was > 10 µM.
Take `Cc1oc(N2CC3CN(C(=O)c4nccnc4N4CCCC4)CC3C2)nc1C(C)(C)O` (stereo not shown) [Example 20, 2-(5-methyl-2-{5-[(3-pyrrolidin-1-ylpyrazin-2-yl)carbonyl]hexahydropyrrolo[3,4-c]pyrrol-2(1H)-yl}-1,3-oxazol-4-yl) propan-2-ol]: the IC50 in assay [1] is 252 nM; on hOX1R it was > 10 µM.
Take `Cc1oc(N2CC3CN(C(=O)c4nccnc4-n4cccn4)CC3C2)nc1C(C)(C)O` (stereo not shown) [Example 21, 2-{5-methyl-2-[5-{[3-(1H-pyrazol-1-yl)pyrazin-2-yl]carbonyl}hexahydropyrrolo[3,4-c]pyrrol-2(1H)-yl]-1,3-oxazol-4-yl} propan-2-ol]: the results for the IC50 (in assay [1]; at hOX1R) were 112 nM and > 10 µM, respectively.
`Cc1oc(N2CC3CN(C(=O)c4ccccc4OC(F)F)CC3C2)nc1C(C)(C)O` (stereo not shown) [Example 22, 2-{2-[5-{[2-(difluoromethoxy)phenyl]carbonyl}hexahydropyrrolo[3,4-c]pyrrol-2(1H)-yl]-5-methyl-1,3-oxazol-4-yl} propan-2-ol]: the values for the IC50 (in assay [1]; on hOX1R) were 101 nM and > 10 µM, respectively.
Taken in the same sequence, the figures for `Cc1oc(N2CC3CN(C(=O)c4ccccc4CC(F)(F)F)CC3C2)nc1C(C)(C)O` (stereo not shown) [Example 23, 2-{5-methyl-2-[5-{(2-(2,2,2-trifluoroethyl)phenyl]carbonyl}hexahydropyrrolo[3,4-c]pyrrol-2(1H)-yl]-1,3-oxazol-4-yl} propan-2-ol] were 230 nM and > 10 µM.
